Measured values: patent publication US10258692B2, “Oral pharmaceutical formulation of BCS class III molecules” (ETHYPHARM, priority 2012, dated 2019)
In brackets after ≈: the same amount, converted by molar mass. Like-named read-outs stand apart in the source and are kept apart here.

Tests used:
[1] = Benet, et al., 2011; cited from earlier work
[2] = Physicochemical characteristics of baclofen (internal report)
Protocol: Baclofen (FIG. 1) is a BCS class III molecule.
The transport mechanism of baclofen (Merino, et al., 1989) is active transport by means of transporters but these are saturated at high dose. Not knowing the transporter composition of the Caco-2 cells, it is sought to have a high concentration of baclofen in the formulas so that the transporters that are present are saturated. Therefore only the increase in paracellular transport was evaluated. The saturation concentration of baclofen in water is 3 mg/ml (internal pre-formulation report). However, its solubility is highly dependent on pH as indicated by the amine and carboxylic functions present on the molecule. Therefore the addition of 0.01 M fumaric acid shown to be compatible with baclofen by the internal pre-formulation report, allows the solubility of baclofen to be increased twofold to 6 mg/ml. The pH is then 3.88.

[3] = Permeability assay on Caco-2 cells (apparent permeability); format: in vitro ADME, human; conditions: human
Source text: (§1) The Caco-2 cells are derived from the culture of human cells of cancerous origin capable of differentiating in the presence of a suitable culture medium (Pontier, 1997-1998). Their properties are a function of the number of subcultures to which they are subjected. […] The brush-border is differentiated and developed with very tight junctions of 10 to 50 Å (narrower than those of the small intestine). From a biochemical viewpoint, Caco-2 cells also express the enzymes of the enterocytes. In addition, numerous transporters are present but their expression is lower than the levels found in vivo and the P-gp efflux pump is over-expressed which may underestimate absorption compared with in vivo.
(§2) The Caco-2 cells were placed in culture and differentiated over 21 to 30 days. They were subjected to a number of subcultures of less than 110. The culture medium was DMEM (Dulbecco's Modified Eagle Medium) supplemented with inactivated 10% foetal calf serum, with 1% non-essential amino acids and antibiotics.
(§3) The Caco-2 cells allowed evaluation of the potential of eight formulas given in Tables 5a, 5b, 5c and 5d, for improvement in the apparent permeability of baclofen. The dilutions are those chosen by the subcontractor as a function of baclofen concentration measured by the assay technique and as a function of the […] non-toxic concentration given by preliminary toxicity studies.
(§4) Samples were taken after the placing the test specimen in the apical medium: at T5 minutes and T125 minutes in the donor compartment and at T65 minutes and T125 minutes in the receiver compartment. […]
(§5) The apparent permeability of baclofen and the recovery ratio were calculated as follows: Papp=[ΔQ/(Δt×A)]/C0 where Papp=apparent permeability (cm·s^−1) • ΔQ=difference in amount of baclofen measured between the two samplings • Δt=time interval between the two samplings • A=exposure surface area (cm^2) • C0=initial concentration deposited in the donor compartment.
(§6) Each assay was performed three times. For the validity of the assay, the permeability of a reference compound was also measured as positive control. […]

[4] = system: Caco-2 cells; assay: as above; format: in vitro ADME, human; conditions: Caco-2, apical pH 6.8 to basolateral pH 7.4; listed as non-formulated baclofen
Source text: as §1, §2, §3, §4, §5, §6

[5] = Baclofen solubility assays (visual method); format: physicochemical; conditions: for solubility at 24 h: thermodynamic from solid
Protocol: Beforehand it is important to determine the solubility of the active ingredient in the excipients to be evaluated. For the purpose of cell assays, it is important that the active ingredient should be in molecular form to obtain cross-membrane transport. Solubility was determined via visual method by adding exactly weighed quantities of baclofen to the selected excipients, after being left under agitation for 24 h. First the solubility of baclofen at ambient temperature in Labrasol®, Miglyol® 810 and Captex® 355 was determined. The solubility of baclofen in Gélucire® 50/13 was determined after melting the excipient at a temperature higher than 50° C. and placing thereof in a thermostat-controlled oven at 60° C. At a second step, to increase the solubility of baclofen in an aqueous medium, this solubility was determined in an acidified solution of 0.01 M fumaric acid.
The solubility values indicated in Table 7 below were determined in relation to visual observation of particles in the media.

[6] = system: Caco-2 cells; assay: Lucifer Yellow test (paracellular transport, tight junctions); format: cell-based, human
Source text: Lucifer yellow (LY) is a marker of paracellular transport (Buyukorturk, et al., 2010). Its measurement in the receiver compartment during the permeability assay allows observation of the opening of the tight junctions. Measurement can also be performed after the assay to evaluate cell integrity (Nollevaux, et al., 2006). The apparent permeability of Lucifer Yellow under normal conditions is […] (Oroxcell, 2011).
Throughout the assays the crossing of Lucifer Yellow from the apical to the basolateral compartment, a marker of paracellular transport, was also evaluated. 200 μM of Lucifer Yellow was co-incubated with the test compound and its permeability evaluated in the same manner as for the latter. Concentrations were measured by fluorescence in both compartments at the start and at the end of the assay.

For `NCC(CC(=O)O)c1ccc(Cl)cc1` (stereo not drawn) [baclofen, Baclofen], the “log P” value [1] is listed as −0.96, the logP [2] is listed as -1 and the “pH of a saturated solution” value [2] is listed as 6.5. For the same compound, the pKa1 [2] was “pKa1 = 3.87”, the pKa2 [2] was “pKa2 = 9.62” and the Solubility ([2]; 0.1N HCl, 0.1N NaOH) was “Soluble: 0.1N HCl, 0.1N NaOH”. For the same compound, the Solubility ([2]; Ethanol, Methanol) was “Very slightly soluble: Ethanol, Methanol”, the Solubility ([2]; water, read-out: Solubility (saturation concentration) in water) was 3000 µg/mL (≈ 14 mM) and the Papp A→B at 125 min ([3]; Caco-2, Caco-2, apical pH 6.8 to basolateral pH 7.4, read-out: apparent permeability of baclofen) was < 0.3 ×10⁻⁶ cm/s. The “apparent permeability of baclofen” value [4] was “lower than 0.5×10^−6 cm/s”, the “pH of the baclofen solution” value ([5]; 6 mg/ml baclofen in 0.01 M fumaric acid) was 3.88 and the solubility at 24 h ([5]; 0.01 M fumaric acid aqueous solution, pH 3.88, aqueous buffer, in 0.01M fumaric acid aqueous medium, ambient, read-out: Solubility of baclofen) was 6000 to 7000 µg/mL (≈ 28.1 to 32.8 mM). For the same compound, the solubility at 24 h ([5]; Gélucire 50/13 (molten), oil or lipid, in Gélucire ® 50/13, 60° C., read-out: Solubility of baclofen) was 500 to 1000 µg/mL (≈ 2.34 to 4.68 mM), the solubility in words ([5]; aqueous medium) was “soluble” and the solubility at 24 h ([5]; liquid absorption enhancers, oil or lipid, read-out: solubility of the active ingredient in the liquid absorption enhancers) was < 1000 µg/mL. The solubility in words ([5]; oil excipients) was “practically insoluble”, the solubility at 24 h ([5]; oil or lipid, in Captex ® 355, ambient, read-out: Solubility of baclofen) was < 100 µg/mL and the solubility at 24 h ([5]; oil or lipid, in Labrasol ®, ambient, read-out: Solubility of baclofen) was 200 to 400 µg/mL (≈ 0.936 to 1.87 mM). The solubility at 24 h ([5]; oil or lipid, in Miglyol ® 810, ambient, read-out: Solubility of baclofen) was < 100 µg/mL.
In the case of `COCCc1ccc(OCC(O)CNC(C)C)cc1` (stereo not drawn) [metoprolol], the Papp A→B at 125 min, 20 μM ([3]; Caco-2, 20 μM metoprolol, positive control) is reported as > 6 ×10⁻⁶ cm/s and the “opening of the tight junctions, in words” value [6] is reported as “lack of effect”.
